# How the values were obtained:
# IDH2-R140Q = target: T1, IDH2-R140Q (Homo sapiens, UniProt P48735, R140Q); experiment: Fluorescent determination of IDH2-R140Q cell activity (2-HG in U87MGR140Q cells); type: cell-based; conditions: 72 hours incubation, read-out: IC50 (2-HG inhibition)
# T1 construct: expressed in transfected cells
# T1 sequence (P48735 40-452 R140Q): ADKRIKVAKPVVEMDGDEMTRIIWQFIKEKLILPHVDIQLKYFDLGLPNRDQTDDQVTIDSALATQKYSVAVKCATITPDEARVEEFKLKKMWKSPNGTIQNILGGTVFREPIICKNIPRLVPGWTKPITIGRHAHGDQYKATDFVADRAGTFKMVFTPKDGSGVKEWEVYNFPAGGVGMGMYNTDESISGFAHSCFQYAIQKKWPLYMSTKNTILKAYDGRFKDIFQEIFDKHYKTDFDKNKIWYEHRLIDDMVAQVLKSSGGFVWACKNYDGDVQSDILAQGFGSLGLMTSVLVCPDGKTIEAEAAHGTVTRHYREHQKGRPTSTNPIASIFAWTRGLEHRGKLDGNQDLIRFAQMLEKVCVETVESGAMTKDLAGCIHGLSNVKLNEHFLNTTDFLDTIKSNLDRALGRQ
# Protocol: Enzyme reaction solution: 1 mM nicotinamide adenine dinucleotide (NAD), 0.6 ng/μL D-2-hydroxyglutarate dehydrogenase (D2HGDH), 0.8 U/mL lipoamidase dehydrogenase (Diaphorase) and 60 μM Resazurin in 40 mM Tris.HCl pH 8.8 assay buffer.
# Standard curve stock solution: The standard of 2-HG sodium salt was serially diluted in serum-free MEM medium to make a standard curve stock solution.
# 100 μL of U87MGR140Q cells were seeded at a density of 6×10^4/mL per well in a 96-well plate a.
# From each well of 96-well plate a, 50 μL of the culture supernatant was transferred to the corresponding well of 96-well plate b; at the same time, 50 μL of standard curve stocking solution was added to other wells of 96-well plate b. Then 10 μl of 360 mM hydrochloric acid was added to all the wells. After shaking and mixing, the plate was placed on ice for 10 minutes, and then 10 μl of 420 mM Tris-base was added. After shaking and mixing, the plate was placed on ice for additional 5 minutes. Then the plate was centrifuged at 2500 rpm for 10 minutes.
# After centrifuging, from each well of 96-well plate b, 20 μL of the supernatant was transferred to 96-well plate c. An additional 80 μL of the enzyme reaction solution was added to each well and incubated at 25° C. for 90 minutes.
# A standard curve of the fluorescence value vs. the corresponding 2-HG concentration was made, and the 2-HG concentration corresponding to each concentration point of the compound was calculated, then the inhibition ratio was calculated, and the data was analyzed using XLfit5 (ID Business Solutions Limited) software to obtain the IC50 value.
# The inhibition ratio was calculated as follows: Inhibition Ratio (IH %)=(1-2-HG concentration of test compound treated cells/2-HG concentration of control cells)×100%.
# IDH1-R132H = target: T2, IDH1-R132H (Homo sapiens, UniProt O75874, R132H); experiment: Fluorescent determination of IDH1-R132H cell activity (2-HG in U87MGR132H cells); type: cell-based; conditions: 2-HG inhibition in U87MGR132H cells transfected with IDH1-R132H mutant plasmid
# T2 construct: expressed in transfected cells; host or cells: U87MG cells (U87MGR132H)
# T2 sequence (O75874 whole entry R132H): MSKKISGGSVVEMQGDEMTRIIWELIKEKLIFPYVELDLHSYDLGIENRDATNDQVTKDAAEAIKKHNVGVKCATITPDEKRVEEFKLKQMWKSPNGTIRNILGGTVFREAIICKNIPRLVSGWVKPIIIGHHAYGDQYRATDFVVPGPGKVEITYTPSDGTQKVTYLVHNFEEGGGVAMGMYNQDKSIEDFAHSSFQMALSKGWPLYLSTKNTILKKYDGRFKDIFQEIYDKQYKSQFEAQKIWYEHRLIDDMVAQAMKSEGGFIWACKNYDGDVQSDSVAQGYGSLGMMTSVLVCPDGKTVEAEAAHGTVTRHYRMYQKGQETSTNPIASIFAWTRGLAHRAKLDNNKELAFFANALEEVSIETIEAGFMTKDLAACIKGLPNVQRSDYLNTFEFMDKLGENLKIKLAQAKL
SMILES,IC50 (IDH2-R140Q) [nM],IC50 (IDH1-R132H) [nM]
C[C@@H](Nc1nc(N[C@H](C)C(F)(F)F)nc(C2=C(F)C(O)CCCC2)n1)C(F)(F)F (mixture of isomers) [Compound 21],99,234
[2H]C1(O)CCCCC(c2nc(NC3CC(F)(F)C3)nc(N[C@H](C)C(F)(F)F)n2)=C1F (mixture of isomers) [Compound 24],197,769
"C[C@@H](Nc1nc(N[C@H](C)C(F)(F)F)nc(C2=C(F)C(O)C(Cl)CC2)n1)C(F)(F)F (mixture of isomers) [Compound 99, 3-(4,6-Bis(((R)-1,1,1-trifluoropropan-2-yl)amino)-1,3,5-triazin-2-yl)-6-chloro-2-fluoro-cyclohex-2-en-1-ol]",553,938
C[C@@H](Nc1nc(NC(C)(C)C)nc(C2=CC(O)CCC2)n1)C(F)(F)F (mixture of isomers) [Compound 155],319,2240
C[C@H](Nc1nc(N[C@H](C)C(F)(F)F)nc(C2=C(F)C(O)CCC2)n1)c1ccccc1 (mixture of isomers) [Compound 157],141,4350
C[C@@H](Nc1nc(N[C@H](C)C(F)(F)F)nc(C2=C(F)C(O)CCC2)n1)C1CC1 (mixture of isomers) [Compound 158],278,1520
C[C@@H](Nc1nc(NC2CC3(CCC3)C2)nc(C2=C(F)C(O)CCC2)n1)C(F)(F)F (mixture of isomers) [Compound 159],205,2720
CC(C)[C@@H](C)Nc1nc(N[C@H](C)C(F)(F)F)nc(C2=C(F)C(O)CCC2)n1 (mixture of isomers) [Compound 163],162,809
CC(C)[C@H](C)Nc1nc(N[C@H](C)C(F)(F)F)nc(C2=C(F)C(O)CCC2)n1 (mixture of isomers) [Compound 167],327,3170
C[C@H](CF)Nc1nc(N[C@H](C)C(F)(F)F)nc(C2=C(F)C(O)CCC2)n1 (mixture of isomers) [Compound 169],738,9460
C[C@@H](CF)Nc1nc(N[C@H](C)C(F)(F)F)nc(C2=C(F)C(O)CCC2)n1 (mixture of isomers) [Compound 170],1380,6930
C[C@H](Nc1nc(N[C@H](C)C(F)(F)F)nc(C2=C(F)C(O)CCC2)n1)C1CC1 (mixture of isomers) [Compound 8],216,1220
C[C@@H](Nc1nc(NCC2CC(F)(F)C2)nc(C2=C(F)C(O)CCC2)n1)C(F)(F)F (mixture of isomers) [Compound 13],373,2080
C[C@H](Nc1nc(N[C@@H](C)C(F)(F)F)nc(C2=C(F)C(O)CCC2)n1)C(F)(F)F (mixture of isomers) [Compound 14],230,1330
CCC(Nc1nc(N[C@H](C)C(F)(F)F)nc(C2=C(F)C(O)CCC2)n1)C(F)(F)F (mixture of isomers) [Compound 15],259,619
C[C@@H](Nc1nc(NC2CC(F)(F)C2)nc(C2=C(F)C(O)CCC2)n1)C(F)(F)F (mixture of isomers) [Compound 31],110,280
C[C@@H](Nc1nc(N[C@H]2CCOC2)nc(C2=CC(F)(F)CCC2)n1)C(F)(F)F [Compound 139],2510,–
C[C@@H](Nc1nc(NC2COC2)nc(C2=CC(O)CCC2)n1)C(F)(F)F (some centres unmarked) [Compound 178],934,–
C[C@@H](Nc1nc(N[C@@H]2CCOC2)nc(C2=CC(O)CCC2)n1)C(F)(F)F (some centres unmarked) [Compound 179],598,–
C[C@@H](Nc1nc(N[C@H]2CCOC2)nc(C2=CC(O)CCC2)n1)C(F)(F)F (some centres unmarked) [Compound 180],531,–
C[C@@H](Nc1nc(N[C@@H]2CCC[C@@H]2O)nc(C2=CC(O)CCC2)n1)C(F)(F)F (some centres unmarked) [Compound 182],1230,–
COC[C@H](C)Nc1nc(N[C@H](C)C(F)(F)F)nc(C2=CC(O)CCC2)n1 (some centres unmarked) [Compound 183],507,–
"C[C@@H](Nc1nc(N[C@H](C)C(F)(F)F)nc(C2=CCCCC2)n1)C(F)(F)F [Compound 186, 6-(Cyclohex-1-en-1-yl)-N^2,N^4-bis((R)-1,1,1-trifluoropropan-2-yl)-1,3,5-triazine-2,4-diamine]",677,–
C1=C(c2nc(NCC3CC3)nc(NCC3CC3)n2)CCCC1 [Compound 187],742,–

# Other lines, results leading:
IC50 (IDH2-R140Q) [nM],IC50 (IDH1-R132H) [nM],SMILES
564,1510,"C[C@@H](Nc1nc(N[C@H](C)C(F)(F)F)c(F)c(C2=CC(O)CCC2)n1)C(F)(F)F (mixture of isomers) [Compound 207, 3-(5-fluoro-2,6-bis(((R)-1,1,1-trifluoropropan-2-yl)amino)pyrimidin-4-yl)cyclohex-2-en-1-ol]"
78,1760,C[C@@H](Nc1nc(NCC2CC2)nc(C2=C(F)C(O)C(F)(F)CC2)n1)C(F)(F)F (mixture of isomers) [Compound 209]
93,4340,CCCNc1nc(N[C@H](C)C(F)(F)F)nc(C2=C(F)C(O)C(F)(F)CC2)n1 (mixture of isomers) [Compound 210]
139,7360,C[C@@H](Nc1nc(NC2CC2)nc(C2=C(F)C(O)C(F)(F)CC2)n1)C(F)(F)F (mixture of isomers) [Compound 238]
–,1500,C[C@@H](Nc1nc(NCC(F)(F)F)nc(C2=C(F)C(O)C(F)(F)CC2)n1)C(F)(F)F (mixture of isomers) [Compound 245]
94,> 10000,C[C@H](Nc1nc(NC2CC2)nc(C2=C(F)C(O)C(F)(F)CC2)n1)C(F)(F)F (mixture of isomers) [Compound 260]
109,2850,C[C@H](Nc1nc(NCC(F)(F)F)nc(C2=C(F)C(O)C(F)(F)CC2)n1)C(F)(F)F (mixture of isomers) [Compound 270]
148,> 10000,[2H]C1(O)C(F)=C(c2nc(NC3CC3)nc(N[C@@H](C)C(F)(F)F)n2)CCC1(F)F (mixture of isomers) [Compound 278]
170,9430,[2H]C1(O)C(F)=C(c2nc(NC3CC3)nc(N[C@H](C)C(F)(F)F)n2)CCC1(F)F (mixture of isomers) [Compound 279]
690,455,C[C@@H](Nc1nc(N[C@H](C)C(F)(F)F)nc(C2=CC(O)C(F)(F)CC2)n1)C(F)(F)F (mixture of isomers) [Compound 281]
343,444,[2H]C1(O)C=C(c2nc(N[C@H](C)C(F)(F)F)nc(N[C@H](C)C(F)(F)F)n2)CCC1(F)F (mixture of isomers) [Compound 282]
174,1320,C[C@H](Nc1nc(N[C@@H](C)C(F)(F)F)nc(C2=C(F)C(O)C(F)(F)CC2)n1)C(F)(F)F (mixture of isomers) [Compound 283]
637,> 10000,C[C@H](Nc1nc(NOC(C)(C)C)nc(C2=C(F)C(O)C(F)(F)CC2)n1)C(F)(F)F (mixture of isomers) [Compound 293]
425,9180,C[C@@H](Nc1nc(NOC(C)(C)C)nc(C2=C(F)C(O)C(F)(F)CC2)n1)C(F)(F)F (mixture of isomers) [Compound 294]
2660,> 10000,"CONc1nc(N[C@H](C)C(F)(F)F)nc(C2=C(F)C(O)C(F)(F)CC2)n1 (mixture of isomers) [Compound 297, 2,6,6-Trifluoro-3-(4-(methoxyamino)-6-(((R)-1,1,1-trifluoropropan-2-yl)amino)-1,3,5-triazin-2-yl)cyclohex-2-en-1-ol]"
5020,–,C[C@@H](Nc1nc(NCC(C)(C)O)nc(C2=CCCCC2)n1)C(F)(F)F [Compound 188]
1410,–,CC(C)Nc1nc(N[C@H](C)C(F)(F)F)nc(C2=CCCC2)n1 [Compound 189]
413,–,"CC(C)Nc1nc(N[C@H](C)C(F)(F)F)nc(C2=CCCCC2)n1 [Compound 190, (R)-6-(cyclohex-1-en-1-yl)-N^2-isopropyl-N^4-(1,1,1-trifluoropropan-2-yl)-1,3,5-triazine-2,4-diamine]"
999,–,C[C@@H](Nc1nc(N[C@H](C)C2CC2)nc(C2=CCCCC2)n1)C1CC1 [Compound 191]
314,–,C[C@@H](Nc1nc(NCC2CC2)nc(C2=CCCCC2)n1)C(F)(F)F [Compound 192]

# From patent publication US12234211B2, “Cycloolefin substituted heteroaromatic compounds and their use” (HUTCHISON MEDIPHARMA LIMITED, priority 2017, dated 2025)
